# Experimental data taken from patent publication US20070238700A1, “N-PHENYL-1,1,1-TRIFLUOROMETHANESULFONAMIDE HYDRAZONE DERIVATIVE COMPOUNDS AND THEIR USAGE IN CONTROLLING PARASITES” (priority 2006, published 2007).
# Like-named read-outs stand apart in the source and are kept apart here.
# Test system: Ctenocephalides felis
# Experimental: b) Ctenocephalides felis Adulticide Assay: C. felis Single Dose Screen
# Mortality of fleas was the primary endpoint in the assay. Fleas were considered dead if they didn't move or were on their sides and unable to walk or right themselves. […] The concentration chosen (1.26 μg/cm^2) was higher than that known to kill 90% of cat fleas (LC90) using the reference compound, permethrin.
# The test species was the cat flea (Ctenocephalides felis). The strain used was obtained from external suppliers as pupae and held in the laboratory under testing conditions until the adults had emerged. Fifteen (15) fleas were used in a minimum of four replicates against a single concentration level (approximately 60 fleas). The insects were selected to be in the adult life stage, aged between 3 and 7 days post emergence.
# The compounds to be tested were supplied as solids and were prepared in acetone as described below prior to testing. Samples were stored in a refrigerator (5±1° C.) unless otherwise specified.
# During the mortality testing, the temperature was maintained at 25±1° C. Humidity was maintained at 75±5%. The base (area=159 mm^2) of a 100 mL glass Erlenmeyer (conical) flask provided the treatment surface. Flasks were pretreated with Coatasil™ glass treatment to maximise bio-availability of test compounds by preventing them from binding to glass the surface. The base of the 100 mL Erlenmeyer flask was treated with 0.5 mL of test sample in acetone and gently swirled. This volume was sufficient to cover the base of the flask. Flasks were left to dry for 24 hours before flea exposure.
# Adult cat fleas were placed into a sorting chamber, which allowed fleas to jump into the Erlenmeyer flasks. Fifteen (15) adult cat fleas were collected in each flask. The top of the flasks were then covered in Parafilm™ and small holes were made to allow gas exchange. A 0.5 mL volume of acetone as a solvent control was applied to the base of an Erlenmeyer flask and the testing proceeded in the same manner described above. Cat fleas in the treatment containers were held under testing conditions for 8, 24 and/or 48 hours. Mortality was recorded at 8, 24, 8 and 24, or 24 and 48 hours Pooled 8, 24, 8 and 24, and 24 and 48 hour mortality data were converted to percentages and are summarized by Table 21, below.
SMILES,"C. felis Mortality (%) 8 h (8 h, data from laboratory 1) [%]","C. felis Mortality (%) 24 h (24 h, data from laboratory 1) [%]",C. felis Mortality (%) 8 h [%],C. felis Mortality (%) 24 h [%]
CC(=NNc1ccc(Cl)cc1)c1ccccc1NS(=O)(=O)C(F)(F)F [Compound 122],23,26,,
"CN(C)N=C(c1ccccc1)c1cc(Cl)ccc1NS(=O)(=O)C(F)(F)F [Compound 123, N-[2-[1-dimethylhydrazono-1-phenyl]methyl-4-chlorophenyl]-trifluoromethanesulfonamide]",,,9,45
CCC(=NN1CCCC1)c1cc(Cl)ccc1NS(=O)(=O)C(F)(F)F [Compound 128],12,36,,
"C#CCN(c1ccc(Cl)cc1C(C)=NN1CCCCC1)S(=O)(=O)C(F)(F)F [Compound 133, N-[2-[1-(1-piperidyl)imino]ethyl-4-chlorophenyl]-N-propargyltrifluoromethanesulfonamide]",,,5,66
CC(=NN1CCCCC1)c1cc(Cl)ccc1N(C)S(=O)(=O)C(F)(F)F [Compound 134],7,14,,
"CCN(c1ccc(Cl)cc1C(C)=NN1CCCCC1)S(=O)(=O)C(F)(F)F [Compound 135, N-[2-[1-(1-piperidyl)imino]ethyl-4-chlorophenyl]-N-ethyl-trifluoromethanesulfonamide]",,,8,41
CC(C)=CCN(c1ccc(Cl)cc1C(C)=NN(C)c1ccccc1)S(=O)(=O)C(F)(F)F [Compound 136],7,13,,
C#CCN(c1ccc(Cl)cc1C(C)=NN(C)c1ccccc1)S(=O)(=O)C(F)(F)F [Compound 137],6,19,,
CC(=NN(C)C(=O)c1ccccc1)c1cc(Cl)ccc1NS(=O)(=O)C(F)(F)F [Compound 138],20,66,,
CC(=NN(C)c1cc(Cl)ccc1Cl)c1cc(Cl)ccc1NS(=O)(=O)C(F)(F)F [Compound 141],13,75,,
CCN(N=C(C)c1cc(Cl)ccc1NS(=O)(=O)C(F)(F)F)c1cc(Cl)ccc1Cl [Compound 142],12,46,,
CCCN(N=C(C)c1cc(Cl)ccc1NS(=O)(=O)C(F)(F)F)c1cc(Cl)ccc1Cl [Compound 143],13,53,,
CC(=NN(c1cc(Cl)ccc1Cl)C(C)C)c1cc(Cl)ccc1NS(=O)(=O)C(F)(F)F [Compound 144],7,42,,
CCOCN(c1ccc(Cl)cc1C(C)=NN1CCCCC1)S(=O)(=O)C(F)(F)F [Compound 145],8,35,,
COCN(c1ccc(Cl)cc1C(C)=NN1CCCCC1)S(=O)(=O)C(F)(F)F [Compound 146],12,24,,
CC(=NNc1ccc(C)cc1)c1cc(Cl)ccc1NS(=O)(=O)C(F)(F)F [Compound 155],7,28,,
CCOC(=O)N(CCC(C)C)N=C(C)c1cc(Cl)ccc1NS(=O)(=O)C(F)(F)F [Compound 158],,,5,28
CC(=NN1CCCCC1)c1cccc(NS(=O)(=O)C(F)(F)F)c1 [Compound 161],7,16,,
CC(=NN(C)c1ccccc1)c1cc(NS(=O)(=O)C(F)(F)F)ccc1Cl [Compound 162],8,58,,
"CC(=NN(C)c1ccccc1)c1cccc(NS(=O)(=O)C(F)(F)F)c1 [Compound 163, N-[3-[1-(N′-methyl-N′-phenyl)hydrazono]ethylphenyl]-trifluoromethanesulfonamide]",,,8,18
CC(=NN(C)c1ccccc1)c1ccc(NS(=O)(=O)C(F)(F)F)cc1 [Compound 164],8,72,,
CC(=NNc1ccc(Cl)cc1)c1ccc(NS(=O)(=O)C(F)(F)F)cc1 [Compound 165],6,7,,
CC(=NN1CCCCC1)c1ccc(NS(=O)(=O)C(F)(F)F)cc1 [Compound 167],2,5,,
C=CCN(N=C(C)c1cc(Cl)ccc1N(CC=C)S(=O)(=O)C(F)(F)F)c1ccc(Cl)cc1 [Compound 170],2,24,,

SMILES,"C. felis Mortality (%) 8 h (8 h, data from laboratory 1) [%]","C. felis Mortality (%) 24 h (24 h, data from laboratory 1) [%]",C. felis Mortality (%) 8 h [%],C. felis Mortality (%) 24 h [%]
C=CCN(N=C(C)c1cc(Cl)ccc1NS(=O)(=O)C(F)(F)F)c1ccc(Cl)cc1 [Compound 171],7,54,,
CC(=NN(C)c1ccccc1)c1cc2c(cc1NS(=O)(=O)C(F)(F)F)OCO2 [Compound 172],5,31,,
C=CCN(N=C(C)c1cc(Cl)ccc1NS(=O)(=O)C(F)(F)F)c1ccccc1 [Compound 173],17,59,,
CC(=NNS(=O)(=O)c1ccc(C)cc1)c1cc(Cl)ccc1NS(=O)(=O)C(F)(F)F [Compound 174],5,27,,
C#CCN(N=C(C)c1cc(Cl)ccc1NS(=O)(=O)C(F)(F)F)c1ccccc1 [Compound 175],5,38,,
CC(=NN1CCCCC1)c1ccccc1NS(=O)(=O)C(F)(F)F [Compound 176],7,31,,
CC(=NN1CCCCC1)c1ccc(C(F)(F)F)cc1NS(=O)(=O)C(F)(F)F [Compound 177],3,22,,
CC(=NNc1ccc(F)cc1)c1ccccc1NS(=O)(=O)C(F)(F)F [Compound 178],4,29,,
CC(=NNc1ccc(Cl)cc1)c1ccc(C(F)(F)F)cc1NS(=O)(=O)C(F)(F)F [Compound 179],3,25,,
CC(=NNc1ccc(F)cc1)c1ccc(C(F)(F)F)cc1NS(=O)(=O)C(F)(F)F [Compound 180],0,16,,
CC(=NN1CCCCC1)c1cc2c(cc1NS(=O)(=O)C(F)(F)F)OCO2 [Compound 181],7,16,,
CCN(N=C(C)c1ccccc1NS(=O)(=O)C(F)(F)F)c1ccc(Cl)cc1 [Compound 182],5,29,,
CC(=O)N(N=C(C)c1cc(Cl)ccc1NS(=O)(=O)C(F)(F)F)c1ccccc1 [Compound 183],,,2,22
"CC(=Nn1c(=O)oc2ccccc21)c1cc(Cl)ccc1NS(=O)(=O)C(F)(F)F [Compound 184, N-[4-Chloro-2-(1-(2(3H)-oxo-benzoxazol-3-yl)imino)ethylphenyl]-trifluoromethanesulfonamide]",,,2,12
CC(=Nn1cccn1)c1cc(Cl)ccc1NS(=O)(=O)C(F)(F)F [Compound 185],2,11,,
"CC(=Nn1cnc2ccccc2c1=O)c1cc(Cl)ccc1NS(=O)(=O)C(F)(F)F [Compound 186, N-[4-Chloro-2-(1-{4(3)-oxo-quinazolin-3-yl}imino)ethylphenyl]-trifluoromethanesulfonamide]",,,2,12
C/C(=N\N1C(=O)NC(C)(C)C1=O)c1cc(Cl)ccc1NS(=O)(=O)C(F)(F)F [Compound 187],5,19,,
CC(=Nn1cnc2ccccc21)c1cc(Cl)ccc1NS(=O)(=O)C(F)(F)F [Compound 188],2,7,,
CC(=Nn1cc2ccccc2n1)c1cc(Cl)ccc1NS(=O)(=O)C(F)(F)F [Compound 189],0,2,,
CC(=NN(C)c1ncccn1)c1cc(Cl)ccc1NS(=O)(=O)C(F)(F)F [Compound 190],,,2,15
CC(=NN1CCN(C)CC1)c1cc(Cl)ccc1NS(=O)(=O)C(F)(F)F [Compound 191],2,48,,
CC(=Nn1c(C)n[nH]c1=O)c1cc(Cl)ccc1NS(=O)(=O)C(F)(F)F [Compound 192],3,5,,
CC(=Nn1ncc2ccccc21)c1cc(Cl)ccc1NS(=O)(=O)C(F)(F)F [Compound 193],2,9,,
